Like-named read-outs stand apart in the source and are kept apart here.
Experiments:
[1] = test system: Myotonic Dystrophy 1 affected patient fibroblasts (Coriel GM04602; 1600 CTG repeats); assay: DM1 foci reduction assay (EC50 assay; CAG10-Cy3 FISH, foci per nucleus); type: cell-based
How it was run: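 GM04602 DM1 patient fibroblasts (1600 CTG repeats) seeded 24 h, then treated 48 h at 37 °C with an 8-point 1:3 dose series from 3 μM. Cells PFA-fixed, ethanol-permeabilized and hybridized overnight with 5 nM CAG10-Cy3 probe, DAPI counterstained. Imaged at 20×, 4 fields per well, as average foci per nucleus.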

[2] = test system: F35T cells; assay: Foci reduction in FECD (CAG10-Cy3 FISH, foci per nucleus); type: cell-based
How it was run: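 F35T cells, 5000 per well, were treated for 48 h at 37 °C, 5% CO2 in an 8-point dose response. Cells were then fixed in 4% PFA, permeabilized in 70% ethanol and hybridized overnight at 37 °C with a CAG10-Cy3 probe in 30% formamide/2×SSC. After DAPI staining, imaging gave foci per nucleus.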

[3] = Homo sapiens, Fibroblast; DM1 patient fibroblasts, 48 h treatment, foci per nucleus; read-out: DM1 EC50, 48 h
[4] = F35T cells, 48 h treatment, foci per nucleus; read-out: FECD EC50, 48 h

Compound	EC50 [1, 3]	EC50 [2, 4]	EC50 ([1]; Homo sapiens, Fibroblast; DM1 patient fibroblasts, foci per nucleus, 48 h treatment; read-out: DM1 EC50, 48 h)	EC50 ([2]; F35T cells, foci per nucleus, 48 h treatment; read-out: FECD EC50, 48 h)
CCOC(=O)c1nc(NC(=O)c2cc(NC(=O)CCNC(=O)c3nc(NC(=O)CCCNC(=O)c4cc(NC(=O)c5nc(NC(=O)CCNC(=O)c6cc(NC(=O)c7nccn7C)cn6C)cn5C)cn4CCCCCCn4nnc5c4-c4ccccc4N(C(=O)CCC(=O)NCCOCCOCCCCCCCl)Cc4ccccc4-5)cn3C)cn2C)cn1C [Compound B-375]	> 1000 nM	> 1000 nM		
Cn1cc(NC(=O)c2nc(NC(=O)CCNC(=O)c3cc(NC(=O)c4nccn4C)cn3C)cn2C)cc1C(=O)NCCCC(=O)Nc1cn(C)c(C(=O)NCCC(=O)Nc2cc(C(=O)Nc3cn(C)c(C(=O)NCCC(=O)NCCCN4CCOCC4)n3)n(C)c2)n1 [Compound B-37]	100 to 500 nM	100 to 500 nM		
CCCNC(=O)CCNC(=O)c1nc(NC(=O)c2cc(NC(=O)CCNC(=O)c3nc(NC(=O)CCCNC(=O)c4cc(NC(=O)c5nc(NC(=O)CCNC(=O)c6cc(NC(=O)c7nccn7C)cn6C)cn5C)cn4CCCCN)cn3C)cn2C)cn1C [Compound B-279]	< 100 nM	< 100 nM		
CCCNC(=O)CCNC(=O)c1nc(NC(=O)c2cc(NC(=O)CCNC(=O)c3nc(NC(=O)CCNC(=O)c4cc(NC(=O)c5nc(NC(=O)CCNC(=O)c6cc(NC(=O)c7nccn7C)cn6C)cn5C)cn4C)cn3C)cn2C)cn1C [Compound B-315]	> 1000 nM	> 1000 nM		
CC(=O)NCCOCCOCCOCCOCCOCCNC(=O)CCNC(=O)c1nc(NC(=O)c2cc(NC(=O)CCNC(=O)c3nc(NC(=O)CCCNC(=O)c4cc(NC(=O)c5nc(NC(=O)CCNC(=O)c6cc(NC(C)c7nccn7C)cn6C)cn5C)cn4C)cn3C)cn2C)cn1C (centres unmarked) [Compound B-76]	100 to 500 nM	100 to 500 nM		
CN1CCN(C(=O)CCNC(=O)c2nc(NC(=O)c3cc(NC(=O)CCNC(=O)c4nc(NC(=O)C[C@H](CNC(=O)c5cc(NC(=O)c6nc(NC(=O)CCNC(=O)c7cc(NC(=O)c8nccn8C)cn7C)cn6C)cn5C)NC(=O)c5ccccc5)cn4C)cn3C)cn2C)CC1 [Compound B-417]			100 to 500 nM	< 100 nM
CC(=O)NCCn1cc(NC(=O)c2nc(NC(=O)CCNC(=O)c3cc(NC(=O)c4nccn4C)cn3C)cn2C)cc1C(=O)NCCCC(=O)Nc1cn(C)c(C(=O)NCCC(=O)Nc2cc(C(=O)Nc3cn(C)c(C(=O)NCCC(=O)N4CCC(C#CC#CC5CCNCC5)CC4)n3)n(C)c2)n1 [Compound B-270]	> 1000 nM	500 to 1000 nM		
CNC(=O)CCNC(=O)c1nc(NC(=O)c2cc(NC(=O)CCNC(=O)c3nc(NC(=O)CCCNC(=O)c4cc(NC(=O)c5nc(NC(=O)CCNC(=O)c6cc(NC(=O)c7nccn7C)cn6C)cn5C)cn4C)cn3C)cn2C)cn1C [Compound B-309]	500 to 1000 nM	< 100 nM		
Cn1cc(NC(=O)c2nc(NC(=O)CCNC(=O)c3cc(NC(=O)c4nccn4C)cn3C)cn2C)cc1C(=O)NCCCC(=O)Nc1cn(C)c(C(=O)NCCC(=O)Nc2cc(C(=O)Nc3cn(C)c(C(=O)NCCC(=O)N4CC=C(C#CC5CCN(C(=O)OC(C)(C)C)CC5)CC4)n3)n(C)c2)n1 [Compound B-347]	< 100 nM	100 to 500 nM		
COCCOCCOCCOCCN(CCCCCn1cc(NC(=O)CCNC(=O)c2nc(NC(=O)CCCNC(=O)c3cc(NC(=O)c4nc(NC(=O)CCNC(=O)c5cc(NC(=O)c6nccn6C)cn5C)cn4C)cn3C)cn2C)cc1C(=O)Nc1cn(C)c(C(=O)NCCC(=O)N2CCC(N3CCNCC3)CC2)n1)CCOCCOCCOCCOC [Compound B-158]	> 1000 nM	> 1000 nM		
CCCNC(=O)CCNC(=O)c1nc(NC(=O)c2cc(NC(=O)CCNC(=O)c3nc(NC(=O)CCCNC(=O)c4cc(NC(=O)c5nc(NC(=O)CCNC(=O)c6cc(NC(=O)c7nccn7C)cn6C)cn5C)cn4CCCCCN=[N+]=[N-])cn3C)cn2C)cn1C [Compound B-285]	< 100 nM	< 100 nM		
Cn1cc(NC(=O)c2nccn2C)cc1C(=O)NCCC(=O)Nc1cn(C)c(C(=O)Nc2cc(C(=O)NCCCC(=O)Nc3cn(C)c(C(=O)NCCC(=O)Nc4cc(C(=O)Nc5cn(C)c(C(=O)NCCC(=O)N6CCC(C#CC#CC7CCNCC7)CC6)n5)n(C)c4)n3)n(CCOCCN)c2)n1 [Compound B-297]	> 1000 nM	100 to 500 nM		
Cn1cc(NC(=O)c2nc(NC(=O)CCNC(=O)c3cc(NC(=O)c4nccn4C)cn3C)cn2C)cc1C(=O)NCCCC(=O)Nc1cn(C)c(C(=O)NCCC(=O)Nc2cc(C(=O)Nc3cn(C)c(C(=O)NCCC(=O)NCCCCC(=O)N[C@@H](CCCNC(=N)N)C(=O)N[C@@H](CCCNC(=N)N)C(=O)NCCCCN=[N+]=[N-])n3)n(C)c2)n1 [Compound B-154]	> 1000 nM	100 to 500 nM		
CN(C)C(=NCCCNC(=O)c1nc(NC(=O)c2cc(NC(=O)CCNC(=O)c3nc(NC(=O)CCCNC(=O)c4cc(NC(=O)c5nc(NC(=O)CCNC(=O)c6cc(NC(=O)c7nccn7C)cn6C)cn5C)cn4C)cn3C)cn2C)cn1C)N(C)C [Compound B-206]	100 to 500 nM	100 to 500 nM		
CCN(CC)CCCC[C@H](NC(C)=O)C(=O)Nc1ccc(CNC(=O)CCNC(=O)c2nc(NC(=O)c3cc(NC(=O)CCNC(=O)c4nc(NC(=O)CCCNC(=O)c5cc(NC(=O)c6nc(NC(=O)CCNC(=O)c7cc(NC(=O)c8nccn8C)cn7C)cn6C)cn5C)cn4C)cn3C)cn2C)cc1 [Compound B-149]	100 to 500 nM	> 1000 nM		
Cn1cc(NC(=O)c2nc(NC(=O)CCNC(=O)c3cc(NC(=O)c4nccn4C)cn3C)cn2C)cc1C(=O)NCCCC(=O)Nc1cn(C)c(C(=O)NCCC(=O)Nc2cc(C(=O)Nc3cn(C)c(C(=O)NCCC(=O)NCCCCCN4CCC(C#CC#CC5CCN(C(=O)c6ccc(C(C)(C)C)cc6)CC5)CC4)n3)n(C)c2)n1 [Compound B-177]	500 to 1000 nM	100 to 500 nM		
CCOC(=O)CCNC(=O)c1nc(NC(=O)c2cc(NC(=O)CCNC(=O)c3nc(NC(=O)[C@H](N)CCNC(=O)c4cc(NC(=O)c5nc(NC(=O)CCNC(=O)c6cc(NC(=O)c7nccn7C)cn6C)cn5C)cn4C)cn3C)cn2C)cn1C [Compound B-2]	100 to 500 nM	100 to 500 nM		
CC(=O)N1CCC(N2CCN(C(=O)CCNC(=O)c3nc(NC(=O)c4cc(NC(=O)CCNC(=O)c5nc(NC(=O)CCCNC(=O)c6cc(NC(=O)c7nc(NC(=O)CCNC(=O)c8cc(NC(=O)c9nccn9C)cn8C)cn7C)cn6C)cn5C)cn4C)cn3C)CC2)CC1 [Compound B-119]	100 to 500 nM	500 to 1000 nM		
Cn1cc(NC(=O)c2nc(NC(=O)CCNC(=O)c3cc(NC(=O)c4nccn4C)cn3C)cn2C)cc1C(=O)NCCCC(=O)Nc1cn(C)c(C(=O)NCCC(=O)Nc2cc(C(=O)Nc3cn(C)c(C(=O)NCCC(=O)N[C@@H](CCCNC(=N)N)C(=O)N[C@@H](CCCNC(=N)N)C(=O)NCCCCN=[N+]=[N-])n3)n(C)c2)n1 [Compound B-150]	> 1000 nM	> 1000 nM		
CCCNC(=O)CCNC(=O)c1nc(NC(=O)c2cc(NC(=O)CCNC(=O)c3nc(NC(=O)CCCNC(=O)c4cc(NC(=O)c5nc(NC(=O)CCNC(=O)c6cc(NC(=O)c7nccn7C)cn6C)cn5C)cn4CCOCCNC(C)=O)cn3C)cn2C)cn1C [Compound B-298]	100 to 500 nM	100 to 500 nM		
CCCNC(=O)CCNC(=O)c1nc(NC(=O)c2cc(NC(=O)CCNC(=O)c3nc(NC(=O)CCCNC(=O)c4cc(NC(=O)c5nc(NC(=O)CCNC(=O)c6cc(NC(=O)c7nccn7C)cn6C)cn5C)cn4CCNC(C)=O)cn3C)cn2C)cn1C [Compound B-268]	100 to 500 nM	< 100 nM		
CC(=O)N1CCC(C#CC#CC2CCN(C(=O)CCNC(=O)c3nc(NC(=O)c4cc(NC(=O)CCNC(=O)c5nc(NC(=O)CCCNC(=O)c6cc(NC(=O)c7nc(NC(=O)CCNC(=O)c8cc(NC(=O)c9nccn9C)cn8C)cn7C)cn6CCOCCN)cn5C)cn4C)cn3C)CC2)CC1 [Compound B-296]	< 100 nM	< 100 nM		

Source: US20250368628A1, “METHODS AND COMPOUNDS FOR MODULATING INHERITED GENETIC DISEASES” (Design Therapeutics, Inc., priority 2022, published 2025)
